Data on one compound can be found in patent US9610268B2, “Trans-aconitic acid compounds and uses thereof for inhibiting phosphodiesterase 7” (Academia Sinica, priority 2013, dated 2017).

Test [1] deals with T1, PDE7A1 (Homo sapiens, UniProt Q13946).
T1 construct: purchased CALBIOCHEM 524751
The test can be described thus: PDE7 activity and inhibition assay (HPLC detection of cAMP and AMP). Type of test: biochemical. The conditions noted are these: inhibitor final concentration 0.1 μg/μl; substrate cAMP; 90 minutes. As for the experimental part:
The activity of PDE7A1 was determined in an enzymatic assay as described below, using: • Enzyme: 0.005 U/μl PDE7A1 (Cat.#: 524751, CALBIOCHEM) • Substrate: 0.0008 μg/μl cAMP (Lot.#: BCBF5219V, SIGMA-ALDRICH) • Buffer: 10 mM Tris-HCl, pH 7.5 • Inhibitor as mentioned above: 0.3 μg/μl as a result final concentration 0.1 μg/μl
An example of the enzymatic assay for determining the activity of PDE7A1 is illustrated in FIG. 2. Briefly, substrate (10 μl), PDE7A1 (10 μl), and buffer (10 μl; as a control) were placed in an eppendorf tube in a total volume of 30 μl and immediately (at 0 minute) injected into HPLC (L-7420, HITACHI) and the contents of cAMP and AMP in the reaction mixture were detected at 254 nm under the following conditions:
Solvent: 0.2M NaH2PO4, 25 mM TBA-HS, 15% ACN, pH6
The peak areas of the cAMP and AMP were measured.
90 minutes later, the control mixture was injected again into the HPLC apparatus and the peak areas of cAMP and AMP were measured as described above and compared with that of the initial injection.
Reaction mixtures containing each of the four inhibitors (10 μl) in the same total volume were injected into the HPLC apparatus following the same procedure as described above and the peak areas of cAMP and AMP were measured and compared with that of the control sample. The percentages of inhibition were calculated.

In test [2] the test system is PDE1. The test can be described thus: PDE1 activity and inhibition assay (bis-p-nitrophenyl phosphate, OD 405 nm). Type of test: biochemical. The conditions noted are these: inhibitor final concentration 0.125 μg/μl; substrate bis-p-nitrophenyl phosphate. The procedure:
The activity of PDE1 was determined in an enzymatic assay as described below, using: • Enzyme: 10 μg/μl PDE1 (Lot.#: SLBD8711V, SIGMA-ALDRICH) • Substrate: 0.001 M Bis-p-nitrophenyl phosphate (Lot.#: 021M5003V, SIGMA-5 ALDRICH) • Buffer: 0.1M Tris-HCl, pH 8.9 • Inhibitor (trans-aconitic acid (TAA), Calycosin, Kaempferol 3-O-rutinoside, and Wogonin): 1 μg/μl (final concentration 0.125 μg/μl)
An example of the enzymatic assay is illustrated in FIG. 1. Briefly, substrate (50 μl) and buffer (200 μl) were placed in a plastic disposable cuvette (Cat.#: BL6224, Basic Life). PDE1 (100 μl) and each of the four inhibitors (50 μl) or the buffer (50 μl) as a control were then added into the cuvette. The total volume of the reaction mixture is 400 μl. After incubating the enzymatic reaction mixture for a suitable period of time, the optical density was detected by a spectrophotometer at a wave length of 405 nm (U-3300, HITACHI). The optical densities of the reaction mixtures containing the inhibitors were compared with that of the control mixture and the percentages of inhibition were calculated.

Each structure is given as a SMILES string.

T1 sequence (Q13946 whole entry): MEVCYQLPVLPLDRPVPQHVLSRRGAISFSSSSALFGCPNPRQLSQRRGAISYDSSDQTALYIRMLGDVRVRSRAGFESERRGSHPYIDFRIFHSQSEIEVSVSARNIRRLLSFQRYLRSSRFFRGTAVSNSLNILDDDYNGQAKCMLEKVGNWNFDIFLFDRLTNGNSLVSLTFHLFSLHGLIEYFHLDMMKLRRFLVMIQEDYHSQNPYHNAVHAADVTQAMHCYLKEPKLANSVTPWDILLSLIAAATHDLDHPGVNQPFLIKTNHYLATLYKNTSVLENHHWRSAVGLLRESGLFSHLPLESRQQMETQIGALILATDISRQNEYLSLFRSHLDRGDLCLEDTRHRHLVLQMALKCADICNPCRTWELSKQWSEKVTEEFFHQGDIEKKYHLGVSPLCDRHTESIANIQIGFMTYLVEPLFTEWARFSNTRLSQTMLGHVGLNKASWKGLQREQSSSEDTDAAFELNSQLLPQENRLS

Consider `O=C(O)/C=C(\CC(=O)O)C(=O)O` [TAA, trans-aconitic acid], for which the “inhibitory activity against PDE7A1 (percentage of inhibition, FIG. 3)” value in test [1] was “specifically inhibits PDE7A1”. In addition, in test [2], the “inhibitory activity against PDE1 (percentage of inhibition, FIG. 3)” value is “not PDE1”.
